Data: US20060069132A1, “Azolecarboxamide herbicides” (priority 2004, published 2006)

Legend:
[1] = system: woolly cupgrass; test: Test C pre-/postemergence herbicide test; assay type: in vivo, Eriochloa villosa; details: for Cupgrass, Woolly plant response rating: 500 g ai/ha
Summary of the method: (§1)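 Emerged plants at the 1- to 4-leaf stage (2–18 cm), or freshly planted seeds, received test chemicals in a non-phytotoxic solvent mixture with surfactant. Response was visually scored against controls after 12 to 14 days in the greenhouse, on a 0 (no effect) to 100 (complete control) scale.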

[2] = system: ducksalad; test: Test C flooded paddy test; assay type: in vivo, Heteranthera limosa; details: for Plant response rating, Ducksalad: 500 g ai/ha, visual rating after 12 to 14 days
[3] = system: giant foxtail; test: Test C pre-/postemergence herbicide test; assay type: in vivo, Setaria faberi; details: for Foxtail, Giant plant response rating: 500 g ai/ha
Summary of the method: as §1

[4] = system: pigweed; test: Test C pre-/postemergence herbicide test; assay type: in vivo, Amaranthus retroflexus; details: for Pigweed plant response rating: 500 g ai/ha
Summary of the method: as §1

[5] = system: goosegrass; test: Test C pre-/postemergence herbicide test; assay type: in vivo, Eleusine indica; details: for Goosegrass plant response rating: 500 g ai/ha
Summary of the method: as §1

[6] = system: giant foxtail; test: Test A pre-/postemergence herbicide test; assay type: in vivo, Setaria faberi
Summary of the method: (§2)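 Both application timings were run together: directed soil spray over freshly planted seeds in sandy loam, and runoff spray onto 2–10 cm seedlings. Evaluation after ~10 days in greenhouse used a 0–100 visual scale versus untreated controls.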

[7] = system: large crabgrass; test: Test C pre-/postemergence herbicide test; assay type: in vivo, Digitaria sanguinalis; details: for Crabgrass, Large plant response rating: 500 g ai/ha
Summary of the method: as §1

[8] = system: bermudagrass; test: Test C pre-/postemergence herbicide test; assay type: in vivo, Cynodon dactylon
Summary of the method: as §1

[9] = system: redroot pigweed; test: Test A pre-/postemergence herbicide test; assay type: in vivo, Amaranthus retroflexus
Summary of the method: as §2

[10] = 125 g ai/ha, scale 0 (no effect) to 100 (complete control), visual, 12 to 14 days, preemergence
[11] = 250 g ai/ha, scale 0 to 100 (0 no effect, 100 complete control), visual, 12 to 14 days, preemergence
[12] = 62 g ai/ha, scale 0 to 100 (0 no effect, 100 complete control)
[13] = 250 g ai/ha, scale of 0 to 100, 0 is no effect, 100 is complete control
[14] = scale 0 to 100 (0 no effect, 100 complete control)
[15] = Postemergence, 250 g ai/ha, 0 to 100 scale, 0 no effect, 100 complete control
[16] = Postemergence, 1000 g ai/ha, 0 to 100 scale, 0 no effect, 100 complete control
[17] = Preemergence, 1000 g ai/ha, visual rating, 0 to 100 scale (0 no effect, 100 complete control)
[18] = preemergence, 250 g ai/ha, visual injury, 0 to 100 scale (0 no effect, 100 complete control)
[19] = Postemergence, 125 g ai/ha, scale 0 to 100, 0 no effect, 100 complete control
[20] = Postemergence, 250 g ai/ha, scale 0 to 100, 0 no effect, 100 complete control
[21] = Preemergence, scale 0 to 100, 0 no effect, 100 complete control
[22] = postemergence, 62 g ai/ha, scale 0 to 100
[23] = Postemergence, 500 g ai/ha, 0 to 100 scale, 0 no effect, 100 complete control
[24] = Postemergence, 2000 g ai/ha, 0 to 100 scale, 0 no effect, 100 complete control
[25] = Preemergence, 500 g ai/ha, visual rating, 0 to 100 scale (0 no effect, 100 complete control)
[26] = Preemergence, 2000 g ai/ha, 0 to 100 scale, 0 no effect, 100 complete control

For `CCn1nc(C(C)(C)C)cc1C(=O)Nc1cccc(SC)c1` [Compound 131], the “Plant response rating (0 = no effect, 100 = complete control), Cupgrass, Woolly” value ([1]; 62 g ai/ha, preemergence) was 0, the “Plant response rating, Cupgrass, Woolly” value [1, 10] was 0 and the “Plant response rating, Cupgrass, Woolly” value [1, 11] was 15. The “Ducksalad plant response rating” value [2, 12] was 0, the “Ducksalad plant response rating” value ([2]; 125 g ai/ha, scale 0 to 100 (0 no effect, 100 complete control)) was 20 and the “Ducksalad plant response rating” value [2, 13] was 45. The “Plant response rating, Ducksalad” value [2, 14] was 80, the “Plant response rating (0 = no effect, 100 = complete control), Foxtail, Giant” value ([3]; 62 g ai/ha, preemergence) was 20 and the “Plant response rating, Foxtail, Giant” value [3, 10] was 20. The “Plant response rating, Foxtail, Giant” value [3, 11] was 45, the “Plant response rating (0 = no effect, 100 = complete control), Pigweed” value ([4]; 62 g ai/ha, preemergence) was 95 and the “Plant response rating, Pigweed” value [4, 10] was 100. For the same compound, the “Plant response rating (0 = no effect, 100 = complete control), Goosegrass” value ([5]; 62 g ai/ha, preemergence) was 15, the “Plant response rating, Goosegrass” value [5, 10] was 65 and the “Foxtail, Giant plant response rating” value [6, 15] was 10. The “Plant response rating, Foxtail, Giant” value [6, 16] was 15, the “Foxtail, Giant plant response rating” value [6, 17] was 75 and the “Foxtail, Giant plant response rating” value [6, 18] was 10. For the same compound, the “Plant response rating (0 = no effect, 100 = complete control), Crabgrass, Large” value ([7]; 62 g ai/ha, preemergence) was 45, the “Plant response rating, Crabgrass, Large” value [7, 10] was 90 and the “Plant response rating, Crabgrass, Large” value [7, 11] was 90. The “Plant response rating, Bermudagrass” value ([8]; 31 g ai/ha, scale 0 to 100, 0 no effect, 100 complete control, last section of Table C (species set of preemergence test)) was 0, the “Plant response rating (0 = no effect, 100 = complete control), Bermudagrass” value ([8]; 62 g ai/ha, preemergence) was 15 and the “Plant response rating, Bermudagrass” value [8, 10] was 90. For the same compound, the “Plant response rating, Bermudagrass” value [8, 11] was 95, the “Pigweed plant response rating” value [9, 15] was 45 and the “Plant response rating, Pigweed” value [9, 16] was 75. For the same compound, the “Pigweed plant response rating” value [9, 17] was 90 and the “Pigweed plant response rating” value [9, 18] was 40.
`CCNC(=O)c1cc(NC(=O)c2cc(C(C)(C)C)nn2CC)ccc1F` [Compound 58] was tested, and the “Plant response rating (0 = no effect, 100 = complete control), Cupgrass, Woolly” value ([1]; 62 g ai/ha, preemergence) was 0, the “Plant response rating, Cupgrass, Woolly” value [1, 10] was 40 and the “Plant response rating, Cupgrass, Woolly” value [1, 11] was 60. For the same compound, the “Cupgrass, Woolly plant response rating” value ([1]; Postemergence, scale 0 to 100) was 20, the “Plant response rating, Cupgrass, Woolly” value [1, 19] was 5 and the “Plant response rating, Cupgrass, Woolly” value [1, 20] was 20. The “Cupgrass, Woolly plant response rating” value [1, 21] was 80, the “Plant response rating, Cupgrass, Woolly” value [1, 22] was 5 and the “Ducksalad plant response rating” value [2, 12] was 0. For the same compound, the “Ducksalad plant response rating” value ([2]; 125 g ai/ha, scale of 0 to 100, 0 is no effect, 100 is complete control) was 15, the “Ducksalad plant response rating” value [2, 13] was 20 and the “Plant response rating, Ducksalad” value [2, 14] was 60. For the same compound, the “Plant response rating (0 = no effect, 100 = complete control), Foxtail, Giant” value ([3]; 62 g ai/ha, preemergence) was 70, the “Plant response rating, Foxtail, Giant” value [3, 10] was 100 and the “Plant response rating, Foxtail, Giant” value [3, 11] was 100. For the same compound, the “Foxtail, Giant plant response rating” value ([3]; Postemergence, scale 0 to 100) was 40, the “Plant response rating, Foxtail, Giant” value [3, 19] was 5 and the “Plant response rating, Foxtail, Giant” value [3, 20] was 20. For the same compound, the “Foxtail, Giant plant response rating” value [3, 21] was 100, the “Plant response rating, Foxtail, Giant” value [3, 22] was 0 and the “Plant response rating (0 = no effect, 100 = complete control), Pigweed” value ([4]; 62 g ai/ha, preemergence) was 100. The “Plant response rating, Pigweed” value [4, 10] was 100, the “Plant response rating, Pigweed” value [4, 11] was 100 and the “Pigweed plant response rating” value ([4]; Postemergence, scale 0 to 100) was 85. The “Plant response rating, Pigweed” value [4, 20] was 70, the “Pigweed plant response rating” value [4, 21] was 100 and the “Plant response rating, Pigweed” value [4, 22] was 60. The “Plant response rating (0 = no effect, 100 = complete control), Goosegrass” value ([5]; 62 g ai/ha, preemergence) was 90, the “Plant response rating, Goosegrass” value [5, 10] was 95 and the “Plant response rating, Goosegrass” value [5, 11] was 95. The “Goosegrass plant response rating” value ([5]; Postemergence, scale 0 to 100) was 30, the “Plant response rating, Goosegrass” value [5, 19] was 5 and the “Plant response rating, Goosegrass” value [5, 20] was 10. The “Goosegrass plant response rating” value [5, 21] was 95, the “Plant response rating, Goosegrass” value [5, 22] was 0 and the “Plant response rating, Foxtail, Giant” value [6, 23] was 45. The “Plant response rating, Foxtail, Giant” value [6, 24] was 60, the “Foxtail, Giant plant response rating” value [6, 25] was 85 and the “Foxtail, Giant plant response rating” value [6, 26] was 95. The “Plant response rating (0 = no effect, 100 = complete control), Crabgrass, Large” value ([7]; 62 g ai/ha, preemergence) was 90, the “Plant response rating, Crabgrass, Large” value [7, 10] was 95 and the “Plant response rating, Crabgrass, Large” value [7, 11] was 95. For the same compound, the “Crabgrass, Large plant response rating” value ([7]; Postemergence, scale 0 to 100) was 30, the “Plant response rating, Crabgrass, Large” value [7, 19] was 5 and the “Plant response rating, Crabgrass, Large” value [7, 20] was 15. For the same compound, the “Crabgrass, Large plant response rating” value [7, 21] was 95, the “Plant response rating, Crabgrass, Large” value [7, 22] was 5 and the “Plant response rating (0 = no effect, 100 = complete control), Bermudagrass” value ([8]; 62 g ai/ha, preemergence) was 90. The “Plant response rating, Bermudagrass” value [8, 10] was 100, the “Plant response rating, Bermudagrass” value [8, 11] was 100 and the “Bermudagrass plant response rating” value ([8]; Postemergence, 500 g ai/ha, scale 0 to 100) was 10. For the same compound, the “Plant response rating, Bermudagrass” value [8, 19] was 5, the “Bermudagrass plant response rating” value ([8]; Postemergence, 250 g ai/ha, scale 0 to 100) was 10 and the “Bermudagrass plant response rating” value ([8]; Preemergence, 500 g ai/ha, scale 0 to 100, 0 no effect, 100 complete control) was 100. The “Plant response rating, Bermudagrass” value [8, 22] was 0, the “Plant response rating, Pigweed” value [9, 23] was 70 and the “Plant response rating, Pigweed” value [9, 24] was 90. For the same compound, the “Pigweed plant response rating” value [9, 25] was 100 and the “Pigweed plant response rating” value [9, 26] was 100.
